This is an account of results in PubChem BioAssay (NCI).

Test systems include HOP-92 NSCLC; LOX IMVI melanoma; MALME-3M melanoma; MDA-MB-435; NCI-H226 lung; NCI-H23 lung; OVCAR-3 ovarian; OVCAR-4 ovarian; SK-MEL-2 melanoma; MOLT-4 leukemia.
Common to all, as to assay: inhibition of tumour cell growth, NCI panel, 48 h

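Exposure lasted 48 hours, with cells grown in 96-well plates and compounds tested at five concentrations. Abbreviation: GI50, concentration required for 50% inhibition of growth. TGI: total growth inhibition.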

`CC[Si](CC)(CC)OC1[C@@H](O[Si](CC)(CC)CC)[C@@H](CNC(=O)NC)O[C@H]1n1cnc2c(NC(=O)Nc3ccccc3)ncnc21` (some centres undefined): the GI50 with HOP-92 NSCLC is 1.58 µM; with LOX IMVI melanoma, 2.61 µM; with MALME-3M melanoma, 2.39 µM; in the experiment on MDA-MB-435 it was 3.17 µM; in the experiment with NCI-H226 lung, 5.11 µM; with NCI-H23 lung, 3.64 µM. The GI50 was 2.63 µM in the experiment with OVCAR-3 ovarian, 3.41 µM in the experiment on OVCAR-4 ovarian and 2.49 µM in the experiment with SK-MEL-2 melanoma. Also, the TGI was 5.26 µM in the experiment with HOP-92 NSCLC; 7.85 µM in the experiment on LOX IMVI melanoma; 6.67 µM with MALME-3M melanoma; > 100 µM with MDA-MB-435; > 100 µM in the experiment with NCI-H226 lung; > 100 µM with NCI-H23 lung. Besides, the TGI in the experiment on OVCAR-3 ovarian is 7.7 µM; in the experiment with OVCAR-4 ovarian, > 100 µM; with SK-MEL-2 melanoma it was 5.9 µM.
Consider `COc1cccc(-c2nn(-c3ccccc3)cc2-c2ccnc(NCCCNS(=O)(=O)c3ccc(C(F)(F)F)cc3)c2)c1`, for which the GI50 with HOP-92 NSCLC is 3.68 µM; in the experiment with LOX IMVI melanoma, 4.86 µM; with MALME-3M melanoma it was 3.4 µM; in the experiment on MDA-MB-435, 4.2 µM; in the experiment on NCI-H226 lung, 8.75 µM; with NCI-H23 lung it was 4.86 µM. Also, the GI50 in the experiment on OVCAR-3 ovarian is 5.75 µM; in the experiment on OVCAR-4 ovarian, 4.36 µM; in the experiment with SK-MEL-2 melanoma, 2.84 µM. For the same compound, the TGI with HOP-92 NSCLC, in the experiment with LOX IMVI melanoma, with MALME-3M melanoma, with MDA-MB-435, in the experiment on NCI-H226 lung and in the experiment on NCI-H23 lung was > 100 µM in each case. Further, the TGI in the experiment with OVCAR-3 ovarian is > 100 µM; in the experiment on OVCAR-4 ovarian, > 100 µM; with SK-MEL-2 melanoma, 12.4 µM.
For `Cc1ccc(/C(=C/C=C(C#N)C#N)Sc2nc3ccccc3s2)cc1`, the GI50 with MALME-3M melanoma was 2.52 µM; with MDA-MB-435 it was 3.54 µM; with MOLT-4 leukemia, > 100 µM; with NCI-H226 lung, 3.5 µM; in the experiment with NCI-H23 lung it was 3.36 µM; in the experiment on OVCAR-3 ovarian, 4.49 µM. The GI50 was 6.68 µM in the experiment on OVCAR-4 ovarian and 4.95 µM with SK-MEL-2 melanoma. The TGI with MALME-3M melanoma was 6.57 µM; with MDA-MB-435, 13.1 µM; with MOLT-4 leukemia it was > 100 µM; in the experiment with NCI-H226 lung, 8.01 µM; with NCI-H23 lung, 11.6 µM; in the experiment with OVCAR-3 ovarian, 19 µM. For the same compound, the TGI in the experiment with OVCAR-4 ovarian turned out to be 87.6 µM; with SK-MEL-2 melanoma it was 27.1 µM.
`COc1ccc(NC(=O)c2cccc(C3CCc4c(cc(OC)c(OC)c4OC)O3)c2)cc1` (centres undefined): the GI50 with HOP-92 NSCLC is 0.29 µM; with LOX IMVI melanoma, 3.94 µM; in the experiment with MALME-3M melanoma, 2.69 µM; in the experiment on MDA-MB-435 it was 0.528 µM; in the experiment on NCI-H23 lung it was 4.56 µM; in the experiment with OVCAR-3 ovarian, 3.54 µM. The GI50 is 3.14 µM with OVCAR-4 ovarian and 2.95 µM in the experiment with SK-MEL-2 melanoma. Also, the TGI in the experiment with HOP-92 NSCLC was 3.49 µM; in the experiment with LOX IMVI melanoma, > 100 µM; in the experiment with MALME-3M melanoma, > 100 µM; in the experiment on MDA-MB-435 it was 9.92 µM; with NCI-H23 lung, > 100 µM; with OVCAR-3 ovarian, > 100 µM. The TGI in the experiment on OVCAR-4 ovarian was > 100 µM; in the experiment with SK-MEL-2 melanoma, 8.79 µM.
Consider `CCOC(=O)c1cc(C(=O)c2cc(OC)c(OC)c(OC)c2)n2ccc(-c3cc[n+](CC(=O)c4cc(OC)c(OC)c(OC)c4)cc3)cc12`, for which the GI50 in the experiment with MALME-3M melanoma is 1.73 µM; in the experiment with MDA-MB-435 it was 1.9 µM; in the experiment on NCI-H226 lung, 2.37 µM; in the experiment on OVCAR-3 ovarian, 1.83 µM; with OVCAR-4 ovarian, 1.74 µM; in the experiment on SK-MEL-2 melanoma, 2.6 µM. Further, the TGI in the experiment on MALME-3M melanoma is 3.68 µM; with MDA-MB-435, 3.85 µM; with NCI-H226 lung it was 6.62 µM; with OVCAR-3 ovarian, 3.6 µM; in the experiment on OVCAR-4 ovarian it was 3.67 µM; in the experiment with SK-MEL-2 melanoma, 7.12 µM.
With `CCN(CC)CCCC(C)Nc1ccnc(/C=C/c2ccc(Cl)cc2)c1` (centres undefined), the TGI stood at 3.12 µM in the experiment with HOP-92 NSCLC; 3.28 µM in the experiment on LOX IMVI melanoma; 3.08 µM in the experiment with MALME-3M melanoma; 2.95 µM in the experiment on MDA-MB-435; 4.97 µM in the experiment on NCI-H226 lung; 23.7 µM with NCI-H23 lung. The TGI is 4.98 µM in the experiment on OVCAR-3 ovarian and 4.25 µM in the experiment on SK-MEL-2 melanoma. Further, in the experiment on NCI-H226 lung, the GI50 is 2.02 µM.
For `CC(=N/NC(N)=S)/C(C)=N/NC(N)=S`, the TGI with LOX IMVI melanoma, in the experiment on MALME-3M melanoma, in the experiment on MDA-MB-435, with MOLT-4 leukemia, in the experiment with NCI-H226 lung and in the experiment with NCI-H23 lung was > 100 µM throughout. Also, the TGI in the experiment on OVCAR-3 ovarian and with SK-MEL-2 melanoma was > 100 µM in each case.
Take `CCSCCCC(=O)O`: the TGI with LOX IMVI melanoma, in the experiment with MALME-3M melanoma, with MDA-MB-435, in the experiment on MOLT-4 leukemia, with NCI-H226 lung and in the experiment with NCI-H23 lung was > 100 µM in each case. The TGI with OVCAR-3 ovarian, with OVCAR-4 ovarian and in the experiment with SK-MEL-2 melanoma was > 100 µM throughout.
Regarding `Nc1cc(N)c2nc(-c3ccccc3)c(NCc3ccc(Cl)c(Cl)c3)nc2c1`, the GI50 in the experiment with MALME-3M melanoma is 3.41 µM; in the experiment on MDA-MB-435, 2.74 µM; in the experiment with MOLT-4 leukemia it was 2.07 µM; with NCI-H226 lung it was 22.6 µM; with NCI-H23 lung it was 14.2 µM; with OVCAR-3 ovarian, 2.64 µM. Besides, the figures for the GI50 in the experiment on OVCAR-4 ovarian and in the experiment on SK-MEL-2 melanoma were 11.7 µM and 1.91 µM, respectively. Besides, the TGI in the experiment with MALME-3M melanoma was 13.8 µM; in the experiment on MDA-MB-435, 7.56 µM; in the experiment on MOLT-4 leukemia it was > 100 µM; in the experiment on NCI-H226 lung, 46.3 µM; in the experiment on NCI-H23 lung, 27.8 µM; in the experiment with OVCAR-3 ovarian it was 6.98 µM. In addition, the results for the TGI with OVCAR-4 ovarian and in the experiment on SK-MEL-2 melanoma were > 100 µM and 4.26 µM, respectively.
As to `COc1ccc(C(Nc2ccccn2)c2cc(C(C)(C)C)cc(C(C)(C)C)c2O)cc1` (centres undefined), the TGI in the experiment on HOP-92 NSCLC was > 100 µM; with LOX IMVI melanoma it was 35.8 µM; in the experiment with MALME-3M melanoma it was 24.4 µM; in the experiment on MDA-MB-435, 62.4 µM; in the experiment on NCI-H226 lung, 47.9 µM; with NCI-H23 lung, 51.2 µM. Moreover, the TGI is 43.6 µM in the experiment on OVCAR-3 ovarian, > 100 µM with OVCAR-4 ovarian and 43.2 µM in the experiment with SK-MEL-2 melanoma.
As for `Cc1ccc(C2C3Cc4ccccc4C3=NN2c2ccc(S(=O)(=O)NC(=O)Nc3ccccc3)cc2)cc1` (centres undefined), the GI50 in the experiment with HOP-92 NSCLC is 14.3 µM; in the experiment on LOX IMVI melanoma it was 13.5 µM; in the experiment on MDA-MB-435 it was 18.7 µM; in the experiment on MOLT-4 leukemia, 8.88 µM; in the experiment with NCI-H226 lung, 15.9 µM; in the experiment with NCI-H23 lung, 14.9 µM. Further, the GI50 is 14.7 µM in the experiment on OVCAR-3 ovarian, 17.9 µM in the experiment on OVCAR-4 ovarian and 14.2 µM in the experiment on SK-MEL-2 melanoma. In addition, the TGI with HOP-92 NSCLC amounted to 28.2 µM; in the experiment on LOX IMVI melanoma it was 27.9 µM; with MDA-MB-435 it was 46.2 µM; in the experiment with MOLT-4 leukemia it was 34.4 µM; in the experiment with NCI-H226 lung, 49.2 µM; in the experiment on NCI-H23 lung, 31.9 µM. Moreover, the results for the TGI in the experiment on OVCAR-3 ovarian, with OVCAR-4 ovarian and in the experiment with SK-MEL-2 melanoma were 36.5 µM, 50 µM and 31.5 µM, respectively.
`C=C1C(O)C2CC(C)(C)C(=O)C2=C(CC(C)C)C12CC2` (centres undefined): the GI50 is > 100 µM in the experiment on HOP-92 NSCLC; > 100 µM with LOX IMVI melanoma; > 100 µM in the experiment with MALME-3M melanoma; > 100 µM with MDA-MB-435; 72 µM in the experiment on MOLT-4 leukemia; > 100 µM in the experiment with NCI-H23 lung. The GI50 in the experiment with OVCAR-3 ovarian, in the experiment on OVCAR-4 ovarian and in the experiment on SK-MEL-2 melanoma was > 100 µM in each case. The TGI in the experiment on HOP-92 NSCLC, with LOX IMVI melanoma, with MALME-3M melanoma, in the experiment with MDA-MB-435, in the experiment with MOLT-4 leukemia and in the experiment on NCI-H23 lung was > 100 µM in each case. In addition, the TGI with OVCAR-3 ovarian, with OVCAR-4 ovarian and in the experiment on SK-MEL-2 melanoma was > 100 µM throughout.
Regarding `N/C(=N/S(=O)(=O)c1cc(C(=O)Nc2ccc(F)cc2)c(Cl)cc1SCc1ccccc1)Nc1ccccc1O`, the GI50 is 1.9 µM with HOP-92 NSCLC; 1.76 µM with LOX IMVI melanoma; 1.76 µM with MDA-MB-435; 1.55 µM in the experiment on MOLT-4 leukemia; 16.3 µM with NCI-H226 lung; 2.04 µM with NCI-H23 lung. Besides, the GI50 with OVCAR-3 ovarian is 1.44 µM; in the experiment on OVCAR-4 ovarian, 2.22 µM; with SK-MEL-2 melanoma it was 2.13 µM. Moreover, the TGI was determined as 4.02 µM in the experiment with HOP-92 NSCLC; 3.41 µM in the experiment with LOX IMVI melanoma; 3.19 µM with MDA-MB-435; 2.99 µM with MOLT-4 leukemia; 30.9 µM in the experiment with NCI-H226 lung; 3.86 µM in the experiment with NCI-H23 lung. The TGI was 2.81 µM with OVCAR-3 ovarian, 5.14 µM in the experiment with OVCAR-4 ovarian and 4.02 µM with SK-MEL-2 melanoma.
Regarding `O=C(O)c1cc(Cl)cc(Cc2cc(Cl)cc(C(=O)O)c2O)c1O`, the TGI in the experiment on HOP-92 NSCLC, with LOX IMVI melanoma, in the experiment with MALME-3M melanoma, in the experiment with MDA-MB-435, with MOLT-4 leukemia and in the experiment on NCI-H23 lung was > 100 µM each time. The TGI in the experiment with OVCAR-3 ovarian, with OVCAR-4 ovarian and in the experiment on SK-MEL-2 melanoma was > 100 µM each time.
